# Reference: US8211646B1, “Methods of treating ovarian cancer by modulating SnoN” (University of South Florida, priority 2008, dated 2012)
# Peptide text beside a SMILES is read from it. * marks the point of attachment. Cbz = O=C(OCc1ccccc1)*; CH2F = FC*
# What was measured:
# Assay type in all cases: cell-based
# [1] = tested on: TAK1, SMAD2/3, TGFβRII, AKT, phospho-SMAD2; experiment: Western analysis of other TGFβ signaling mediators
# Protocol: (§1) Proteins were resolved on an 8%, 12%, or 15% SDS-PAGE gel (as appropriate) and electrophoretically transferred to polyvinyldifluoride (PVDF) membranes. After blocking with 5% (w/v) milk in TBST (Tris-Buffered Saline containing 0.1% Tween-20) for one hour at room temperature, membranes were incubated with primary antibodies (at appropriate dilution) overnight at 4° C., followed by extensive washing and incubation for 1 hour with the appropriate horseradish peroxidase-conjugated secondary antibodies (BioRad, Hercules, Calif.). Blots were washed extensively. A rabbit polyclonal EVI1 antibody was obtained (1:3000 dilution, St. Jude's Children's Hospital, Memphis, Tenn.). SnoN rabbit polyclonal (1:1000 dilution), PML, and p21 SMURF2 rabbit polyclonal (1:500 dilution), MRP1 mouse monoclonal (1:500 dilution) and GAPDH mouse monoclonal (1:250 dilution) antibodies were obtained from Santa Cruz Biotechnology (Santa Cruz, Calif.). TGFβRII rabbit polyclonal (1:1000 dilution) antibody was obtained from Strategic Diagnostics (Newark, Del.). Smad2/3 rabbit polyclonal (1:1000 dilution), Beclin-1 rabbit polyclonal (1:1000 dilution), AKT rabbit polyclonal (1:1000 dilution), TAK1 rabbit polyclonal (1:1000 dilution), PARP rabbit polyclonal (1:1000 dilution), Beclin-1 rabbit polyclonal (1:1000 dilution), caspase-3 rabbit polyclonal (1:1000) which detects the pro-caspase form, and ATG5 rabbit polyclonal (1:1000 dilution), LC3-II rabbit polyclonal (1:1000 dilution) antibodies were obtained from Cell Signaling Technology (Danvers, Mass.). The HSP27 mouse monoclonal (1:1000 dilution) antibody was obtained from Stressgen (Ann Arbor, Mich.). Blots were developed using chemiluminescence substrates (Amersham Piscataway, N.J. or BioRad, Hercules, Calif.). Monoclonal PAI-1 antibody was obtained from BD Pharmingen. PSMAD2, total SMAD2/3, p-ERK, p-AKT, and total AKT antibodies were obtained from Cell Signaling Technology. A monoclonal antibody against Arkadia was obtained from Abnova (Taiwan).
# (§2) Densitometric analysis was performed using the HP Scanjet 5590 and the Image J program (Image Processing and Analysis in Java, NIH Image Software). Bands were selected and the intensity values were normalized to those for GAPDH. The values are presented as fold-changes relative to control siRNA treated cells.
# (§3) The clinical inhibitors As2O3, geldanamycin (17-AAG) (dissolved in dimethylsulfoxide [DMSO]), and MG132 (dissolved in DMSO) were obtained from Sigma-Aldrich (St. Louis, Mo.), Fisher Scientific (Pittsburgh, Pa.), and Alexis Biochemicals (Farmingdale, N.Y.), respectively. N-acetyl-L-cysteine (NAC; dissolved in media) and Bortezomib (PS-341; dissolved in DMSO) were obtained from Fisher Scientific. 3-Methyladenine (3-MA; dissolved in media) was obtained from MP Biomedicals (Solon, Ohio). Tiron (4,5-Dihydroxy-1,3-benzenedisulfonic acid, dissolved in media) was obtained from Fisher Scientific. zVAD-fmk (dissolved in DMSO) and bafilomycin A (dissolved in DMSO) was obtained from Axxora LLC (San Diego, Calif.). Bovine catalase was obtained from Sigma-Aldrich. HBED and Mn TBAP was obtained from ENZO Life Sciences (Farmingdale, N.Y.). Ovarian cells were plated in 6-well plates at 250,000 cells per well and grown in complete medium. The following day, the cells were treated with 5 μM MG132, As2O3 (between 2-50 μM), 17-AAG (between 2-50 μM), NAC (Fisher Scientific, between 25 μM to 1 mM), Tiron (between 25 μM to 1 mM), 3-MA (0.1 mM to 10 mM), or zVAD-fmk (25 μM to 100 μM). For control cells, DMSO (a final concentration of <0.5%) was added to compare appropriately to drugs dissolved in DMSO. After the appropriate incubation time (6 or 18 hours), cell lysates were collected, protein quantified, and SDS-PAGE/western analysis was performed. In addition, for selected studies, RNA was isolated, quantified, and used for qPCR analysis.
# [2] = tested on: SnoN; experiment: Western analysis of SnoN protein levels
# Protocol: as §1, §2
# as §3, with “The following day, the cells were treated with 5 μM MG132, As2O3 (between 2-50 μM), 17-AAG (between 2-50 μM), NAC (Fisher Scientific, between 25 μM to 1 mM), Tiron (between 25 μM to 1 mM), 3-MA (0.1 mM to 10 mM), or zVAD-fmk (25 μM to 100 μM).” left out
# [3] = tested on: LC3-I/LC3-II, autophagosomes; experiment: Autophagy: LC3 western, EGFP-LC3 fluorescence, TEM of autophagosomes; details: HEY, 18 hours
# Protocol: as §1
# HEY cells were seeded onto glass coverslips and allowed to adhere following overnight incubation. The cells were then transiently transfected with EGFP-LC3 (Addgene, Cambridge, Mass.) and allowed to recover for 24 hours. The cells were treated at the appropriate concentrations of As2O3 in the absence or presence of 3-MA (5 and 10 mM), for 18 hours. The cells were then fixed in 4% paraformaldehyde in PBS for 30 minutes at room temperature, washed twice in PBS, and blocked for 1 hour at room temperature in PBS containing 5% goat serum and 0.1% Triton X-100. The cells were counterstained with Hoescht nuclear stain, washed 3 times for 5 minutes in PBS, anti-Fade containing DAPI nuclear stain was then applied, and coverslips mounted onto glass slides and viewed under a Zeiss inverted fluorescence microscope (Moffitt Cancer Center Microscopy Core).
# Autophagy induction was analyzed using electron microscopy. […] Cells were then fixed in 2.5% glutaraldehyde in 0.1M phosphate buffer overnight at 4° C. Following rinsing in buffer, cells were scraped from the culture flasks, washed, and then post-fixed in 1% osmium tetroxide in buffer. After dehydration in a graded series of acetone, the cells were embedded in Embed 812 epoxy resin. Thin sections (70 nm) were cut on an Ultramicrotome. The sections on the grids were stained with uranyl acetate and lead citrate. The sections were examined on a Transmission Electron Microscope (Morgagni 268D).
# [4] = tested on: cleaved PARP; experiment: Western analysis of PARP cleavage (early apoptosis marker); details: HEY; for PARP cleavage in As2O3-treated cells with added inhibitor: 18 hours
# Protocol: as §1, §2, §3
# [5] = tested on: SnoN RNA; experiment: qPCR of SnoN RNA levels in ovarian cell lines; set-up: reduction of basal SnoN RNA levels / effect on basal SnoN RNA levels: unit of the concentration uncertain
# Protocol: RNA was isolated using the RNeasy Mini Kit (Qiagen, Valencia, Calif.) from normal, benign, stage I-IV ovarian patient samples and quantitative PCR was performed. A one-step RT-PCR Taqman master mix from Applied Biosystems (Foster City, Calif.) and primers for genes in the 3q26.2 amplicon were obtained using Genebank sequences as well as from Assays on Demand (Hs00180524_m1 (SnoN/SkiL)), with the following primers and probe sets.
# Primers/probe sequences for SnoN (Hs00180524_m1), TGFβRII (Hs00234253_m1), and LC3 (Hs00261291_m1) were obtained from Applied Biosystems (Assays by Design).
# mRNA levels were determined using the One-Step-Plus Applied Biosystems Detection System or ABI PRISM 7700 Sequence Detection System using β-actin as a reference. PCR conditions were as follows: stage I: 48° C. for 30 min; stage II: 95° C. for 10 min; stage III: [40 cycles] 95° C. for 15 s followed by 60° C. for 1 min Using the correlative method, RNA-fold change in expression was calculated as Ct of gene—Ct of β-actin to generate ΔCt from which ΔCt of the normal sample was subtracted. These values were then converted to log2 values.
# The clinical inhibitors As2O3, geldanamycin (17-AAG) (dissolved in dimethylsulfoxide [DMSO]), and MG132 (dissolved in DMSO) were obtained from Sigma-Aldrich (St. Louis, Mo.), Fisher Scientific (Pittsburgh, Pa.), and Alexis Biochemicals (Farmingdale, N.Y.), respectively. N-acetyl-L-cysteine (NAC; dissolved in media) and Bortezomib (PS-341; dissolved in DMSO) were obtained from Fisher Scientific. 3-Methyladenine (3-MA; dissolved in media) was obtained from MP Biomedicals (Solon, Ohio). Tiron (4,5-Dihydroxy-1,3-benzenedisulfonic acid, dissolved in media) was obtained from Fisher Scientific. zVAD-fmk (dissolved in DMSO) and bafilomycin A (dissolved in DMSO) was obtained from Axxora LLC (San Diego, Calif.). […] After the appropriate incubation time (6 or 18 hours), cell lysates were collected, protein quantified, and SDS-PAGE/western analysis was performed. In addition, for selected studies, RNA was isolated, quantified, and used for qPCR analysis.
# [6] = tested on: EVI1 forms (MDS1/EVI1, EVI1, EVI1^Del190-515)
# Protocol: as §1, §2, §3
# [7] = tested on: ovarian cancer cells; experiment: Cell titer glo cell viability assay; details: 25 μM, 18 hour treatment, relative to control cells
# Protocol: Measurement of Intracellular ATP Levels. T80, HEY, and SKOV3 ovarian cells were seeded in triplicate for each treatment group at 5000 cells per well into each well of a 96 well white-opaque plate. Following overnight cell attachment, cells were treated for 18 hours with appropriate doses of arsenic trioxide or geldanamycin (0 mM, 2 μM, 5 μM, 10 μM, 25 μM, and 50 μM). Following termination of the cell treatments, the media was removed from the wells and replaced with 100 μl of phosphate-buffered saline (PBS). The plate was equilibrated to room temperature, 100 μl of Cell-Titer Glo reagent (Promega, Madison, Wis.) was added, and mixed on a plate shaker for 2 minutes. The plate was further incubated for 10 minutes at room temperature prior to reading with a Biotek luminescence plate reader to obtain relative light unit (RLU) measurements. Empty wells (containing no cells) were utilized as a correction for background luminescence. All experiments were performed in triplicate.
# [8] = tested on: HSP27; experiment: Western analysis of HSP27; details: HEY, 18 hours
# Protocol: as §1, with “The HSP27 mouse monoclonal (1:1000 dilution) antibody was obtained from Stressgen (Ann Arbor, Mich.). Blots were developed using chemiluminescence substrates (Amersham Piscataway, N.J. or BioRad, Hercules, Calif.). Monoclonal PAI-1 antibody was obtained from BD Pharmingen. PSMAD2, total SMAD2/3, p-ERK, p-AKT, and total AKT antibodies were obtained from Cell Signaling Technology. A monoclonal antibody against Arkadia was obtained from Abnova (Taiwan).” left out
# The clinical inhibitors As2O3, geldanamycin (17-AAG) (dissolved in dimethylsulfoxide [DMSO]), and MG132 (dissolved in DMSO) were obtained from Sigma-Aldrich (St. Louis, Mo.), Fisher Scientific (Pittsburgh, Pa.), and Alexis Biochemicals (Farmingdale, N.Y.), respectively. […] After the appropriate incubation time (6 or 18 hours), cell lysates were collected, protein quantified, and SDS-PAGE/western analysis was performed. In addition, for selected studies, RNA was isolated, quantified, and used for qPCR analysis.
# [9] = HEY and OVCA429, 18 hours, increasing doses
compound,measurement,setting,value
"CC(=O)N[C@@H](CS)C(=O)O [NAC, N-acetyl-L-cysteine]","EVI1, TAK1, and TGFβRII protein expression in As2O3-treated cells with NAC","[1]; HEY, 18 hours",recovery
same,SnoN expression in As2O3-treated cells with increasing doses of NAC,"[2]; HEY, 18 hours",markedly reduced
TGF-β,phospho-SMAD2 levels,"[1]; 1 h post stimulation, T29, T80, SKOV3, HEY, OVCA429, OVCAR8",markedly elevated
same,SnoN protein levels in ovarian cancer cells,"[2]; SKOV3, OVCA429, OVCAR8, HEY, between 1 and 3 h post stimulation",dramatic increase
same,SnoN protein levels in immortalized normal ovarian epithelial cells,"[2]; T29 and T80, between 15 min and 1 h post-TGF-β stimulation (50 pM)",dramatic decrease
CO/C1=C\C(C)=C\[C@@H](C)[C@@H](O)[C@@H](C)C/C(C)=C/C=C/[C@H](OC)[C@@H]([C@@H](C)[C@@H](O)[C@H](C)[C@@]2(O)C[C@@H](O)[C@H](C)[C@@H](C(C)C)O2)OC1=O [Bafilomycin A1],SnoN levels in As2O3-treated cells with added inhibitor,"[2]; HEY, 18 hours",slightly reduced
same,LC3 levels (LC3-II/LC3-I) in As2O3-treated cells with added inhibitor,[3],increased
same,PARP cleavage in As2O3-treated cells with added inhibitor,[4],increased
O=c1cc(N2CCOCC2)oc2c(-c3ccccc3)cccc12 [LY294002],reduction of basal SnoN RNA levels,"[5]; 50 (unit uncertain), 12 h post-treatment, OVCA429, HEY, T29, T80",50%
N#CC(=C(/N)Sc1ccccc1N)/C(C#N)=C(\N)Sc1ccccc1N [U0126],effect on basal SnoN RNA levels,"[5]; 25 (unit uncertain), data not shown",not significant
"EVI1 siRNA: Dharmacon custom siRNA against EVI1 Exon VII, SEQ ID 6 (ACUACGUCUUCCUUAAAUAUU; listed as RNA, chemistry not given here)",reduction of SnoN levels,"[2]; absence and presence of As2O3 (6 and 18 h, 50 μM), HEY",> 50%
same,effect on As2O3-induced PARP cleavage,[4]; As2O3-treated,did not dramatically alter
"CC(C)C[C@H](NC(=O)[C@H](Cc1ccccc1)NC(=O)c1cnccn1)B(O)O [PS-341, Bortezomib]",TGFβRII protein in drug-treated cells with added proteosome inhibitor,[1]; combination with As2O3 (MG132: 6 hour drug treatment),did not appear to be recovered
same,EVI1 protein in As2O3-treated cells with added proteosome inhibitor,"[6]; combination with As2O3, HEY, OVCA429",recovered
same,SnoN protein in drug-treated cells with added proteosome inhibitor,[2]; combination with As2O3,further increased
17-allylaminogeldanamycin [17-AAG],"TGFβRII, SMAD2/3, and AKT protein",[1]; [9],more marked reductions
same,reduction of cell growth (cellular viability),[7],63%
same,MDS1/EVI1 and EVI1^Del190-515 protein,"[6]; 5 μM 17-AAG, 18 hour",reduced
same,wild type EVI1 protein,"[6]; 5 μM 17-AAG, 18 hour",not dramatically affected
same,protein levels of EVI1 forms,[6]; [9],slight decrease
same,SnoN/SkiL protein levels,[2]; [9],slight decrease
COC(=O)C[C@H](NC(=O)[C@H](C)NC(=O)[C@@H](NC(=O)OCc1ccccc1)C(C)C)C(=O)CF [zVAD-fmk] (Cbz-Val-Ala-Asp(OMe)-CH2F),HSP27 levels in As2O3-treated cells with added inhibitor,[8],slightly decreased
same,SnoN levels in As2O3-treated cells with added inhibitor,"[2]; HEY, 18 hours",remained unchanged
same,LC3 levels (LC3-II/LC3-I) in As2O3-treated cells with added inhibitor,[3],remained unchanged
same,PARP cleavage in As2O3-treated cells with added inhibitor,[4],dramatically reduced
"Cn1cnc(N)c2ncnc1-2 [3-MA, 3-Methyladenine]",HSP27 levels in As2O3-treated cells with added inhibitor,[8],reduced dramatically
same,SnoN levels in As2O3-treated cells with added inhibitor,"[2]; HEY, 18 hours",not dramatically altered
same,LC3 levels (LC3-II/LC3-I) in As2O3-treated cells with added inhibitor,[3],reduced
same,PARP cleavage in As2O3-treated cells with added inhibitor,[4],further increased
